Experimental data as given in PMC11111691, “Cystine-knot peptide inhibitors of HTRA1 bind to a cryptic pocket within the active site region” (Nature Communications, 2024).
Positions of bridges follow the written chain, without caps; N, C: chain ends. Residues, ends and D or L forms follow the SMILES beside them.

Experiments:
Format in all cases: biochemical
[1] = target: T1, HTRA1^FL (Homo sapiens, UniProt Q92743); assay: HTRA1^FL enzyme inhibition assay with synthetic substrate H2-OPT
T1 construct: Human full-length HTRA1 (HTRA1^FL, Q23-P480); made in house; host or cells: Trichoplusia ni cells
Summary of the method: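 CKP or 7mer-ABP preincubated with protease at 37 °C (CKP 60 min; 7mer-ABP 15 min, 2 µM selectivity), then 5 µM Mca-IRRVSYSFK(Dnp)K added in TNC buffer, 0.25% DMSO. Cleavage read kinetically at 37 °C (ex 328/em 393 nm); initial rates as % DMSO control, IC50 by 4PL fit.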

[2] = target: T2, HTRA1^FL, HTRA1^PD, HTRA1^PD/PDZ (Homo sapiens, UniProt Q92743); assay: Fluorescence-quenched casein-BODIPY assay, HTRA1 constructs; conditions: 2 µM CKP (0.5 mM 7mer-ABP)
T2 construct: made in house; host or cells: Trichoplusia ni cells (FL); E. coli (PD, PD/PDZ)
Method: The fluorescence-quenched casein-BODIPY® assay (EnzCheck®, Thermo Fisher Scientific) was carried out in TNC buffer (50 mM Tris pH 8.0, 200 mM NaCl, 0.25% CHAPS) at 37 °C in 96-well black optical bottom plates (Nalge Nunc Int., Rochester, NY). Enzymes were incubated with CKPs or DMSO control for 15 min prior to addition of casein substrate. The reactant concentrations were: 30 nM HTRA1^FL, 30 nM HTRA1^PD/PDZ, 30 nM HTRA1^PD, 30 nM HTRA2^PD/PDZ, 30 nM HTRA3^FL, 100 nM HTRA3^PD/PDZ, 30 nM HTRA4^FL, 300 nM HTRA4^PD/PDZ, 2 µM CKP, 5 µg/ml casein substrate and 0.25% DMSO. For selectivity assays, 0.5 mM 7mer-ABP was used as positive control. The kinetics of substrate cleavage were measured at 37 °C on a SpectraMax M5 microplate reader (Molecular Devices) with excitation of 485 nm and emission of 530 nm for 30 min (HTRA1 and HTRA2) or 5 h (HTRA3 and HTRA4). The determined initial rates of cleavage were expressed as percent of control (DMSO control) after subtracting the baseline rates (without enzyme).

[3] = target: T3, HTRA4^PD/PDZ, HTRA4^FL (Homo sapiens, UniProt P83105); assay: H2-OPT selectivity assay, HTRA4; conditions: 1 µM HTRA4^PD/PDZ, 2 µM CKP (0.5 mM 7mer-ABP), 5 µM H2-OPT
T3 construct: purchased Abcam (FL form); the PD/PDZ form was made in house in E. coli ab134444
T3 sequence (P83105 153-476): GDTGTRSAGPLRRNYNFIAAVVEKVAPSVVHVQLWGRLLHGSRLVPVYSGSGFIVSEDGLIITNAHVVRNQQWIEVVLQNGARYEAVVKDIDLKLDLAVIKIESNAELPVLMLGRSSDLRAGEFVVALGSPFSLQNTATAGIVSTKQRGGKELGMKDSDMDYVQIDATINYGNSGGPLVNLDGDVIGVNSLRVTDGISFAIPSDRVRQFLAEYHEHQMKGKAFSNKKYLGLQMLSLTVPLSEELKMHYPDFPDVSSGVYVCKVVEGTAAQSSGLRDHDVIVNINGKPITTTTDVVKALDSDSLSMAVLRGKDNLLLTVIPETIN
Method: (§1) Assays with the fluorescence-quenched synthetic substrate Mca-IRRVSYSFK(Dnp)K (H2-OPT)[38],[60] were carried out essentially as described. CKP stock solutions in DMSO were diluted in TNC buffer (dilution series for IC50 determinations, or final concentration of 2 µM for selectivity assay or as indicated for HTRA1/4 mutants) and incubated with enzymes in 96-well black optical bottom plates for 60 min at 37 °C. For selectivity experiments we used the 7mer-ABP as inhibitor, which was incubated with the proteases for 15 min at 37 °C. A 10 mM stock solution of H2-OPT in DMSO was diluted with water, prewarmed at 37 °C and then added to the CKP-enzyme mixtures. The final concentrations in the reaction mixtures were: 1 nM HTRA1^FL, 3 nM HTRA1^PD/PDZ, 1 nM HTRA1^PD, 1 nM HTRA2^PD/PDZ, 3 nM HTRA3^FL, 60 nM HTRA3^PD/PDZ, 6 nM HTRA4^FL, 1 µM HTRA4^PD/PDZ, 1 nM mouse HTRA1^PD, 25 nM HTRA1^PD-A202Y, 1 µM HTRA4^PD/PDZ-Y200A, 0.5 mM 7mer-ABP, 5 µM H2-OPT, and 0.25% DMSO. The kinetics of substrate cleavage was measured at 37 °C on a SpectraMax M5 microplate reader with excitation of 328 nm and emission of 393 nm. The determined initial rates of cleavage were expressed as percent of control (DMSO control) after subtracting the baseline rates (without enzyme). IC50 values were determined by Sigmoidal 4PL modeling of multiple data points from serial dilutions of CKPs using Prism 9 software (GraphPad). For selectivity assays with HTRA1-4^PD/PDZ constructs, the specific activities of the enzymes and enzyme:CKP inhibitor ratios were as follows: HTRA1^PD/PDZ, 12560 mRFU/min/nM – 1:667; HTRA2^PD/PDZ, 32300 mRFU/min/nM – 1:2000; HTRA3^PD/PDZ, 962 mRFU/min/nM – 1:33; HTRA4^PD/PDZ, 18 mRFU/min/nM – 1:2.

[4] = target: T4, HTRA4^PD/PDZ, HTRA4^FL (Homo sapiens, UniProt P83105); assay: H2-OPT selectivity assay, HTRA4; conditions: 6 nM HTRA4^FL, 2 µM CKP (0.5 mM 7mer-ABP)
T4 construct: purchased Abcam (FL form); the PD/PDZ form was made in house in E. coli ab134444
T4 sequence (P83105 32-476): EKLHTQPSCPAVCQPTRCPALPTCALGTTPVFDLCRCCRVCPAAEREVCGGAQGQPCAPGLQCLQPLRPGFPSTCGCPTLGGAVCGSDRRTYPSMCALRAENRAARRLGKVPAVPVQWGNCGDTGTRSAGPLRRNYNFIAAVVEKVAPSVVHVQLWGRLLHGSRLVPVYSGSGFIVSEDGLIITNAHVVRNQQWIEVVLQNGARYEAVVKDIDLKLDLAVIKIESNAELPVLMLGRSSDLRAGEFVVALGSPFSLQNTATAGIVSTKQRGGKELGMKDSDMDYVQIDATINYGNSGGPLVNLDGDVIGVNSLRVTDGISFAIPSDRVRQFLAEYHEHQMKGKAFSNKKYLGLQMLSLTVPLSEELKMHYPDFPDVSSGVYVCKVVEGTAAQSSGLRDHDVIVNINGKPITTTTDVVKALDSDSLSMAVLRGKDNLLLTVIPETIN
Method: as §1

T1 sequence (Q92743 23-480): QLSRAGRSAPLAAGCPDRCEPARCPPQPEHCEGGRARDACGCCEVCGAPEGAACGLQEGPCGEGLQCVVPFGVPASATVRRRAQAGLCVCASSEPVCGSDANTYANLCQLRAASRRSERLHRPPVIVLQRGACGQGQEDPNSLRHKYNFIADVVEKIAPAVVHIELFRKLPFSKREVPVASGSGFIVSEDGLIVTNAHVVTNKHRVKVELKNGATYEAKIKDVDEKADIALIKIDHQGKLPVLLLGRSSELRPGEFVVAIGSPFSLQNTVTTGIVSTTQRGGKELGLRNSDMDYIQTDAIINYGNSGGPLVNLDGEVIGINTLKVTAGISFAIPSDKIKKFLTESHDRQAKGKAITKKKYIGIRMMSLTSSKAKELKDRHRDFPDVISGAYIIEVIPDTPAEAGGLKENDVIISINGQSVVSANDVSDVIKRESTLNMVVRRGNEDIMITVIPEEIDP

CC[C@H](C)[C@H](NC(=O)[C@@H]1CCCN1C(=O)[C@H](CC(=O)O)NC(=O)[C@H](C)NC(=O)[C@@H](N)Cc1c[nH]cn1)C(=O)N[C@H]1CSSC[C@@H]2NC(=O)[C@H](Cc3ccccc3)NC(=O)[C@H](Cc3c[nH]c4ccccc34)NC(=O)[C@H](C)NC(=O)CNC(=O)[C@H](CO)NC(=O)[C@@H]3CSSC[C@@H](C(=O)NCC(=O)N4CCC[C@H]4C(=O)N[C@@H](Cc4ccc(O)cc4)C(=O)N[C@H](C(=O)NCC(N)=O)C(C)C)NC(=O)[C@H](CO)NC(=O)[C@H](Cc4c[nH]c5ccccc45)NC(=O)[C@H]([C@@H](C)O)NC(=O)[C@H](C)NC(=O)[C@H](Cc4ccc(O)cc4)NC(=O)[C@H](Cc4ccc(O)cc4)NC(=O)[C@H](CSSC[C@H](NC(=O)[C@@H]4CCCN4C(=O)[C@H](CCCCN)NC(=O)[C@H](CC(N)=O)NC1=O)C(=O)N[C@@H](CCCCN)C(=O)N[C@@H]([C@@H](C)O)C(=O)N[C@@H](Cc1c[nH]cn1)C(=O)N[C@@H](CC(=O)O)C(=O)N[C@@H](CC(=O)O)C(=O)N3)NC(=O)[C@H](C)NC(=O)[C@H](CCC(N)=O)NC2=O [3B3] (H-HADPICNKPCKTHDDCSGAWFCQACYYATWSCGPYVG-NH2; disulfide 6-22, 10-25, 16-32)
IC50 [1]: 53 nM

DPMFKLV-phosphonate [7mer-ABP]
Inhibition of HTRA1^FL, casein-BODIPY cleavage (% of control) ([2]; 30 nM HTRA1^FL, 5 µg/ml casein, 37 °C): significantly inhibited
Inhibition of HTRA1^PD/PDZ, casein-BODIPY cleavage (% of control) ([2]; 30 nM HTRA1^PD/PDZ): significantly inhibited
Inhibition of HTRA4^PD/PDZ, H2-OPT (% of control) [3]: significantly inhibited
Inhibition of HTRA4^FL, H2-OPT (% of control) [4]: significantly inhibited
Inhibition of HTRA1^FL at single concentration, H2-OPT (% of control) ([1]; 1 nM HTRA1^FL, 2 µM CKP (0.5 mM 7mer-ABP)): significantly inhibited
